The text below walks through data of patent US12171744B2, “Pharmaceutical combinations for the treatment of cancer” (Presage Biosciences, Inc., priority 2016, dated 2024).

Format in all cases: cell-based
Test [1] concerns HCC1187 triple negative breast cancer cells. The test can be described thus: Western blot of treated cells. How it is done: (§1) Cell lines shown in Table 1, adherent or suspension, were treated in 6-well dishes or T10 flasks respectively, seeded at one million per ml density prior to treatment in total volumes of 3-10 ml. All agents used for in vitro cell treatments were formulated in water/DMSO to achieve required concentrations (as stated in respective figure labels/legends) with DMSO concentrations not exceeding 0.01%. Drug sources are indicated in table under ‘CIVO microinjection studies’. Cells were harvested at experimental time points: 2, 6, or 24 hours post treatment as indicated in respective figures, first by washing cells twice in ice-cold PBS in 15 ml falcon tubes, centrifugation at 1000 rpm for 5 mins followed by lysis of the respective cell pellets as described in section below. Note: Drug resistant NUDHL1 Dox 1000 nM and Toledo Dox 1000 nM cell lines were generated at Presage by culturing parental lines in media with stepwise increments in Doxorubicin concentration over several passages. These cells were used to generate xenografts when resistance to 1 uM Dox was achieved.
Protein lysates were prepared by adding ice-cold 1×RIPA Buffer (from 10×, Millipore) with 1×-3× Halt protease and phosphatase inhibitor cocktail (100×, Pierce) to cell pellets, followed by pulse sonication (˜3-5 secs) three times. Lysates were cleared by centrifugation at 14K rpm for 15-20 mins and the supernatant (lysate) was collected for further analysis. To prepare lysates from cryopreserved xenograft tumor tissue, tissue was first homogenized using a hand-held tissue homogenizer (Cole Palmer) in above lysis buffer followed by pulse sonication and centrifugation as described above. Above steps were carried out under ice cold conditions. […] 20-25 micrograms of protein from each sample were subject to SDS-PAGE using BOLT 4-12% Bis-Tris gels (Thermofisher) and transferred to either 0.45 or 0.2 micron pore size membranes (as applicable based on protein molecular size), and either nitrocellulose (NC) or pvdf (Thermofisher) using manufacturer's protocol, blocked for one hour in 5% milk at room temperature, probed with primary antibodies (Table 2) at 4 deg C. overnight and corresponding HRP-conjugated secondary antibodies (Jackson Immunoresearch, 1:10,000-1:20,000 dilutions) for 1 hour at room temperature. Three PBS/0.01% Tween-20 washes (5-10 mins each) were carried out after each antibody incubation. ECL chemiluminescent substrate (Pierce or GE) and autoradiographic film (Thermofisher) was used for detection of protein signals.
1 ug of mRNA from each condition was used to generate cDNA using the High Capacity cDNA Reverse Transcription Kit (Applied Biosystems) and manufacturer's protocol. 100 ng cDNA was used to conduct a PCR assay to amplify XBP1 u or splice forms (Thermofisher PCR Supermix)—94 deg C. for 2 mins, (94 deg C. for 15 secs, 55 deg C. for 30 secs, 72 deg C. for 1 min)×30 cycles, 72 deg C. for 7 mins, hold at 4 deg C.
Background: A western blot detects proteins with antibodies after separation by electrophoresis.

The subject of a further test is U2932 model of DLBCL. The test can be described thus: Western blot of treated cells. The settings on record: increasing concentration of voruciclib, single agent. How it is done: as §1, with “These cells were used to generate xenografts when resistance to 1 uM Dox was achieved.” left out
Protein lysates were prepared by adding ice-cold 1×RIPA Buffer (from 10×, Millipore) with 1×-3× Halt protease and phosphatase inhibitor cocktail (100×, Pierce) to cell pellets, followed by pulse sonication (˜3-5 secs) three times. […] Protein samples were quantified using Bradford assay (Biorad) at 1:10 or higher dilutions using appropriate blank controls with 1×RIPA. […]

For a further test, the system named is MV-4-11. The test can be described thus: Western blot of treated AML cells. On the procedure: as §1
(§2) Protein lysates were prepared by adding ice-cold 1×RIPA Buffer (from 10×, Millipore) with 1×-3× Halt protease and phosphatase inhibitor cocktail (100×, Pierce) to cell pellets, followed by pulse sonication (˜3-5 secs) three times. Lysates were cleared by centrifugation at 14K rpm for 15-20 mins and the supernatant (lysate) was collected for further analysis. To prepare lysates from cryopreserved xenograft tumor tissue, tissue was first homogenized using a hand-held tissue homogenizer (Cole Palmer) in above lysis buffer followed by pulse sonication and centrifugation as described above. Above steps were carried out under ice cold conditions. Protein samples were quantified using Bradford assay (Biorad) at 1:10 or higher dilutions using appropriate blank controls with 1×RIPA. 20-25 micrograms of protein from each sample were subject to SDS-PAGE using BOLT 4-12% Bis-Tris gels (Thermofisher) and transferred to either 0.45 or 0.2 micron pore size membranes (as applicable based on protein molecular size), and either nitrocellulose (NC) or pvdf (Thermofisher) using manufacturer's protocol, blocked for one hour in 5% milk at room temperature, probed with primary antibodies (Table 2) at 4 deg C. overnight and corresponding HRP-conjugated secondary antibodies (Jackson Immunoresearch, 1:10,000-1:20,000 dilutions) for 1 hour at room temperature. Three PBS/0.01% Tween-20 washes (5-10 mins each) were carried out after each antibody incubation. ECL chemiluminescent substrate (Pierce or GE) and autoradiographic film (Thermofisher) was used for detection of protein signals.
(§3) At the given time points, cells were lysed and subjected to western blot analysis with antibodies that specifically recognize phosphorylated RNA pol II (pSer2), MCL-1, cleaved PARP, and Beta-actin. […] Cleaved PARP (cPARP) may be used as a biomarker of apoptosis.
(§4) At the given time points, cells were lysed and subjected to western blot analysis with antibodies that specifically recognize phosphorylated RNA pol II (pSer2), MCL-1, cleaved PARP, and Beta-actin. […] Venetoclax is observed to induce MCL-1 upregulation in all three cell lines.

The subject of another test is OCI-AML-3. The test can be described thus: Western blot of treated AML cells. On the procedure: as §1, §2, §3, §4
The subject of the next test is SKM-1. The test can be described thus: Western blot of treated AML cells. On the procedure:
as §1, §2, §3, §4

Where [2] appears, read: Western blot, voruciclib and bortezomib in combination.
The mark [3] stands for this setting: voruciclib 1.5 and 5.0 micromolar, 2, 6, or 24 h.
Where [4] appears, read: voruciclib 1.5 micromolar, venetoclax 100 nM, 24 h.

“Also recorded” adds a separate entry of the source.

With `CN1CC[C@@H](c2c(O)cc(O)c3c(=O)cc(-c4ccc(C(F)(F)F)cc4Cl)oc23)[C@@H]1CO` (relative stereo) [voruciclib, (+)-trans-2-(2-Chloro-4-trifluoromethylphenyl)-5,7-dihydroxy-8-(2-hydroxymethyl-1-methylpyrrolidin-3-yl)-chromen-4-one], in test [1] (Western blot, compared to untreated sample), the MCL-1 protein expression result is listed as “reduced”. Besides, the “bortezomib-induced increase in MCL-1 expression” value in test [1] (setting [2]) is reported as “decreased; also recorded: diminishes”. The “bortezomib-induced upregulation of XIAP” value in test [1] (setting [2]) is listed as “diminishes”. The XBP1 upregulation entry in test [1] (voruciclib combined with either bortezomib or tunicamycin) is “diminished”. In addition, the MCL-1 entry with U2932 model of DLBCL was “suppresses”; in the test with MV-4-11 (setting [3]), “suppresses”; in the test with MV-4-11 (setting [4]), “dampens”; in the test on OCI-AML-3 (setting [3]) it was “suppresses”; in the test with OCI-AML-3 (setting [4]), “dampens”; in the test with SKM-1 (setting [3]) it was “suppresses”. The MCL-1 entry in the test on SKM-1 (setting [4]) is listed as “dampens”. In addition, the “apoptosis (cPARP)” value with U2932 model of DLBCL is “increases as the concentration of voruciclib increases”. The “apoptosis (cleaved PARP)” value with MV-4-11 (setting [3]), in the test on OCI-AML-3 (setting [3]) and in the test on SKM-1 (setting [3]) was “induces apoptosis” in each case. Also, the “apoptosis (PARP)” value in the test with MV-4-11 (setting [4]), in the test on OCI-AML-3 (setting [4]) and in the test with SKM-1 (setting [4]) was “neither agent alone induces apoptosis” each time.
